ChEMBL document CHEMBL4308825, “Positive and Negative Allosteric Modulators of N-Methyl-d-aspartate (NMDA) Receptors: Structure-Activity Relationships and Mechanisms of Action” (J Med Chem, 2018)
Values belong to the compound of their own block, whether it stands above or below them.

Key:
[1] = target: T1, Glutamate receptor ionotropic, NMDA 2D (Homo sapiens, UniProt O15399+Q05586); experiment: Positive allosteric modulation of GluN2D receptor (unknown origin) expressed in xenopus laevis oocytes assessed as increase in glycine-induced channel current by two electrode voltage clamp method; assay type: cell-based
[2] = target: T2, Glutamate receptor ionotropic, NMDA 2B (Homo sapiens, UniProt Q05586+Q13224); experiment: Positive allosteric modulation of GluN2B receptor (unknown origin) expressed in xenopus laevis oocytes assessed as increase in glycine-induced channel current by two electrode voltage clamp method; assay type: cell-based
T2 sequence (Q13224 whole entry, one chain of several): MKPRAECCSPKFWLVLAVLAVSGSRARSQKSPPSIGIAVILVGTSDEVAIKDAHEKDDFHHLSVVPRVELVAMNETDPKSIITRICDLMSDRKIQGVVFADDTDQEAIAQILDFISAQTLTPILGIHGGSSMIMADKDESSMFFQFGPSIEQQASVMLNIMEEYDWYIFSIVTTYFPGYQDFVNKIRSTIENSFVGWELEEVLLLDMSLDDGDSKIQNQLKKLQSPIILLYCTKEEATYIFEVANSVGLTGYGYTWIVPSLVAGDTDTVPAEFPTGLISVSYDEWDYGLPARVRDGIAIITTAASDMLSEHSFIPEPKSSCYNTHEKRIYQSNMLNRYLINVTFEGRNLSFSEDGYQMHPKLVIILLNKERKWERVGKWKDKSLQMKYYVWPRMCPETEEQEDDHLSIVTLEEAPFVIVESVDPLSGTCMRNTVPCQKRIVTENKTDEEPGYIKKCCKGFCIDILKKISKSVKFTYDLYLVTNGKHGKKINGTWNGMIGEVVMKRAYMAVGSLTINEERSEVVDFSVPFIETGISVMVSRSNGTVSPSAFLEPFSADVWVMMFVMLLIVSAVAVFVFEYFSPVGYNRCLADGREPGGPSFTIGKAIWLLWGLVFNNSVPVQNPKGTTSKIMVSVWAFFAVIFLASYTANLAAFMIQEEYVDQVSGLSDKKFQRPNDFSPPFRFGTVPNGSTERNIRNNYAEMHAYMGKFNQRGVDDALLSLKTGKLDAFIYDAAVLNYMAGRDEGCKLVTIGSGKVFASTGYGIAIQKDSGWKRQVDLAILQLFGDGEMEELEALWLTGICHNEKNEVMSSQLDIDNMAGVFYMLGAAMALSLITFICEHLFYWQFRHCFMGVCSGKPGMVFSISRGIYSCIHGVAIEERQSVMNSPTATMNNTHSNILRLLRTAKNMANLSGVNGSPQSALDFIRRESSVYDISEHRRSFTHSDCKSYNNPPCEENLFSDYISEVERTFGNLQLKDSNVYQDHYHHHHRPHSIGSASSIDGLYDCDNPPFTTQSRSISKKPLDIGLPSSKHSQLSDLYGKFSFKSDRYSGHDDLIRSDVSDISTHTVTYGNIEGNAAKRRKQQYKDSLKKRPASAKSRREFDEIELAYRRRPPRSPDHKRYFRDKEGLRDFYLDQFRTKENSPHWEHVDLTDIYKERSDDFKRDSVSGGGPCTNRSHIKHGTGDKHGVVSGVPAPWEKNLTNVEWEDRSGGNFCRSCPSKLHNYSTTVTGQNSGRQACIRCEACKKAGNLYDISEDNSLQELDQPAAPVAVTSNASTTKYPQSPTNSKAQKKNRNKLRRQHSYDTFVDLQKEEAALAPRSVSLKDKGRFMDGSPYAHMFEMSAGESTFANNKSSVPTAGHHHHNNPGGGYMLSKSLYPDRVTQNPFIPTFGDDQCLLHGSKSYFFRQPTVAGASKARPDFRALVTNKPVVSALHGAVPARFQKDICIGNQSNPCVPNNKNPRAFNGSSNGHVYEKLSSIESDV

[3] = target: T3, Glutamate receptor ionotropic, NMDA 2A (Homo sapiens, UniProt Q05586+Q12879); experiment: Positive allosteric modulation of GluN2A receptor (unknown origin) expressed in xenopus laevis oocytes assessed as increase in glycine-induced channel current by two electrode voltage clamp method; assay type: cell-based
T3 sequence (Q12879 whole entry, one chain of several): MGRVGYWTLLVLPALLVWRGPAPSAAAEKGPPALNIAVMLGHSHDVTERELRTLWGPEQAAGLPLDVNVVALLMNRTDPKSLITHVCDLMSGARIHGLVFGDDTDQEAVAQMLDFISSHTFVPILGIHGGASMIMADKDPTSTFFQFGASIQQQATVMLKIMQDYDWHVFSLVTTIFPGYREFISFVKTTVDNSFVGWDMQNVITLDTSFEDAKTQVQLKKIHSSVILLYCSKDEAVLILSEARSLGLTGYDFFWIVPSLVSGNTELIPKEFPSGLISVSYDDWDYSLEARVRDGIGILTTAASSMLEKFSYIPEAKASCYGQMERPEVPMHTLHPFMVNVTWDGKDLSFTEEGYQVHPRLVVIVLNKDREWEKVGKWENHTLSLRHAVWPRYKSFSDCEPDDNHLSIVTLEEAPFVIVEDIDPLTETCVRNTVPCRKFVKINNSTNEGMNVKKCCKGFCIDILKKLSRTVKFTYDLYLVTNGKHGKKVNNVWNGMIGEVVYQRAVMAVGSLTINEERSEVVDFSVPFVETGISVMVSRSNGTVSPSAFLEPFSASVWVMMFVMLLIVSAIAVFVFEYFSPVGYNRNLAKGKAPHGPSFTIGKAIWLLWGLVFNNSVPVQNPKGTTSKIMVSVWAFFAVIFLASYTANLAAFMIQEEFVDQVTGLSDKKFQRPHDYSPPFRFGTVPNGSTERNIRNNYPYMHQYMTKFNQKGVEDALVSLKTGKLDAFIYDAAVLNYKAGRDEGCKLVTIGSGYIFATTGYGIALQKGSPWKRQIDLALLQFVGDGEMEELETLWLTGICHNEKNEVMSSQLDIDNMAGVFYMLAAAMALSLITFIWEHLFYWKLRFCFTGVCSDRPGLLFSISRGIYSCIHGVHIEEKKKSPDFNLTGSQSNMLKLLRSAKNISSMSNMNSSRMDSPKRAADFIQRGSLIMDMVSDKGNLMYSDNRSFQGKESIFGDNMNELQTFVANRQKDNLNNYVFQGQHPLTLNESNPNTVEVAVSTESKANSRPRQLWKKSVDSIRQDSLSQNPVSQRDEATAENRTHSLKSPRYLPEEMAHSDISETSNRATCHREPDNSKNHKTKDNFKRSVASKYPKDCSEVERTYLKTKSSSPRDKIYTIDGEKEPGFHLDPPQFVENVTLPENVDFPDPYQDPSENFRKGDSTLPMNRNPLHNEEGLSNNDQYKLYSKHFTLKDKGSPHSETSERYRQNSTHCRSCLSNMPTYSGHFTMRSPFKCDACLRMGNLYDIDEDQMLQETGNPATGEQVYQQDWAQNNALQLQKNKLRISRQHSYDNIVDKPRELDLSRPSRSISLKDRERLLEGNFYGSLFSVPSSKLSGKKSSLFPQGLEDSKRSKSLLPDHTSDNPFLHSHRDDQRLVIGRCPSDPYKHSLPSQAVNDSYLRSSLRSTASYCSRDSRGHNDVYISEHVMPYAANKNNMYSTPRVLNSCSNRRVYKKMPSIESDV

[4] = target: T4, Glutamate receptor ionotropic, NMDA 2C (Homo sapiens, UniProt Q05586+Q14957); experiment: Positive allosteric modulation of GluN2C receptor (unknown origin) expressed in xenopus laevis oocytes assessed as increase in glycine-induced channel current by two electrode voltage clamp method; assay type: cell-based
T4 sequence (Q14957 whole entry, one chain of several): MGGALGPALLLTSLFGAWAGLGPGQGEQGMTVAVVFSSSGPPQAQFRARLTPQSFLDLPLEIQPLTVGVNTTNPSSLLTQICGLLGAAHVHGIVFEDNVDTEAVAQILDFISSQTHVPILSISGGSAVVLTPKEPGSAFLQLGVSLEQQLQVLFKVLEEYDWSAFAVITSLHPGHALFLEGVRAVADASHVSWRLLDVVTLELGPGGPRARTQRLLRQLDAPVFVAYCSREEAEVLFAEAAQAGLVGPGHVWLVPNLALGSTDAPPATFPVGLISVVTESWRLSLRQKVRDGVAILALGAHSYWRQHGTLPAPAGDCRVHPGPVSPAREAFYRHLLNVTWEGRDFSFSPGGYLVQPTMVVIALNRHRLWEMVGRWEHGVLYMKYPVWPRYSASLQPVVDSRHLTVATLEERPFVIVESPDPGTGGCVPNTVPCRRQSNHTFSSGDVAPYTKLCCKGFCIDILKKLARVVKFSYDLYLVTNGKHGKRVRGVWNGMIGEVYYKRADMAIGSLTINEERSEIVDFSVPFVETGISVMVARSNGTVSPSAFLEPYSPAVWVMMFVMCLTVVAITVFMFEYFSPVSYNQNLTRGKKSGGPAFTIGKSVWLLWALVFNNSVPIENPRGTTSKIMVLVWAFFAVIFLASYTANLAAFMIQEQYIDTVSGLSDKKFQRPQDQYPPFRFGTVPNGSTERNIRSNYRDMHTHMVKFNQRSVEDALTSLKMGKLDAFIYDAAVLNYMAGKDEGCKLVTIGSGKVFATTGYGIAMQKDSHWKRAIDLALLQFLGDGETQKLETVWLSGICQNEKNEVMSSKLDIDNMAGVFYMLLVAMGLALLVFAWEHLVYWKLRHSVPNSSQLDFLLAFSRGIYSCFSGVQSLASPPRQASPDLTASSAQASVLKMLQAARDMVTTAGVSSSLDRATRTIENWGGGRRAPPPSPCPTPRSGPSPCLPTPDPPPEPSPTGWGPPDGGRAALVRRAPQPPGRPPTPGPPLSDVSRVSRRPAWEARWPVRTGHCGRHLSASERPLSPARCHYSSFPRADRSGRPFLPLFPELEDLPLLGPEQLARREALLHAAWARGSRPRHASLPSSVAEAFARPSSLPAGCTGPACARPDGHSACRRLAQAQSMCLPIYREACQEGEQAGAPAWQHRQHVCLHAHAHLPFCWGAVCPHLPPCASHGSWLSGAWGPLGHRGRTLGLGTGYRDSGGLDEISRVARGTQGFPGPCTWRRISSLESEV

[5] = target: T1, Glutamate receptor ionotropic, NMDA 2D; experiment: Negative allosteric modulation of human GluN2D receptor expressed in xenopus laevis oocytes assessed as reduction in 3 uM glycine-induced channel current at -40 mV holding potential by two electrode voltage clamp method; assay type: cell-based
[6] = target: T1, Glutamate receptor ionotropic, NMDA 2D; experiment: Negative allosteric modulation of human GluN2D receptor expressed in HEK cells assessed as reduction in glycine/glutamate-induced intracellular calcium flux preincubated for 5 mins followed by glycine/glutamate addition by Fluo-4-AM dye based FLIPR assay; assay type: cell-based
[7] = target: T4, Glutamate receptor ionotropic, NMDA 2C; experiment: Negative allosteric modulation of human GluN2C receptor expressed in xenopus laevis oocytes assessed as reduction in 3 uM glycine-induced channel current at -40 mV holding potential by two electrode voltage clamp method; assay type: cell-based
Homo sapiens [8] = organism: Homo sapiens; experiment: Selectivity ratio of IC50 for GluN2B receptor (unknown origin) expressed in xenopus laevis oocytes to IC50 for GluN2C receptor (unknown origin) expressed in xenopus laevis oocytes; assay type: cell-based
[9] = target: T1, Glutamate receptor ionotropic, NMDA 2D; experiment: Negative allosteric modulation of GluN2D receptor (unknown origin) expressed in xenopus laevis oocytes assessed as reduction in glycine-induced channel current by two electrode voltage clamp method; assay type: cell-based
[10] = target: T4, Glutamate receptor ionotropic, NMDA 2C; experiment: Negative allosteric modulation of GluN2C receptor (unknown origin) expressed in xenopus laevis oocytes assessed as reduction in glycine-induced channel current by two electrode voltage clamp method; assay type: cell-based
Homo sapiens [11] = organism: Homo sapiens; experiment: Selectivity ratio of IC50 for GluN2A receptor (unknown origin) expressed in xenopus laevis oocytes to IC50 for GluN2D receptor (unknown origin) expressed in xenopus laevis oocytes; assay type: cell-based
Homo sapiens [12] = organism: Homo sapiens; experiment: Selectivity ratio of IC50 for GluN2B receptor (unknown origin) expressed in xenopus laevis oocytes to IC50 for GluN2D receptor (unknown origin) expressed in xenopus laevis oocytes; assay type: cell-based
Homo sapiens [13] = organism: Homo sapiens; experiment: Selectivity ratio of IC50 for GluN2A receptor (unknown origin) expressed in xenopus laevis oocytes to IC50 for GluN2C receptor (unknown origin) expressed in xenopus laevis oocytes; assay type: cell-based
[14] = target: T2, Glutamate receptor ionotropic, NMDA 2B; experiment: Negative allosteric modulation of GluN2B receptor (unknown origin) expressed in xenopus laevis oocytes assessed as reduction in glycine-induced channel current by two electrode voltage clamp method; assay type: cell-based
[15] = target: T3, Glutamate receptor ionotropic, NMDA 2A; experiment: Negative allosteric modulation of GluN2A receptor (unknown origin) expressed in xenopus laevis oocytes assessed as reduction in glycine-induced channel current by two electrode voltage clamp method; assay type: cell-based
[16] = target: Ionotropic glutamate receptor NMDA 1/2C (Homo sapiens, UniProt Q05586+Q14957); experiment: Negative allosteric modulation of GluN1a/GluN2C receptor (unknown origin) expressed in xenopus laevis oocytes assessed as reduction in glutamate/glycine-induced channel current at -60 mV holding potential by two electrode voltage clamp method; assay type: cell-based
Ionotropic glutamate receptor NMDA 1/2C, sequence (Q14957 whole entry, other chains not shown): as the sequence (Q14957 whole entry, one chain of several) above

[17] = target: Glutamate NMDA receptor; GRIN1/GRIN2A (Homo sapiens, UniProt Q05586+Q12879); experiment: Negative allosteric modulation of GluN1a/GluN2A receptor (unknown origin) expressed in xenopus laevis oocytes assessed as reduction in glutamate/glycine-induced channel current at -60 mV holding potential by two electrode voltage clamp method; assay type: cell-based
[18] = target: Ionotropic glutamate receptor NMDA 1/2D (Homo sapiens, UniProt O15399+Q05586); experiment: Negative allosteric modulation of GluN1a/GluN2D receptor (unknown origin) expressed in xenopus laevis oocytes assessed as reduction in glutamate/glycine-induced channel current at -60 mV holding potential by two electrode voltage clamp method; assay type: cell-based
[19] = target: Glutamate NMDA receptor; GRIN1/GRIN2B (Homo sapiens, UniProt Q05586+Q13224); experiment: Negative allosteric modulation of GluN1a/GluN2B receptor (unknown origin) expressed in xenopus laevis oocytes assessed as reduction in glutamate/glycine-induced channel current at -60 mV holding potential by two electrode voltage clamp method; assay type: cell-based
[20] = target: T2, Glutamate receptor ionotropic, NMDA 2B; experiment: Positive allosteric modulation of EGFP-fused human GluN2B receptor expressed in HEK293T cells assessed as increase in glycine-induced channel current by two electrode voltage clamp method; assay type: cell-based
[21] = target: T3, Glutamate receptor ionotropic, NMDA 2A; experiment: Positive allosteric modulation of EGFP-fused human GluN2A receptor expressed in HEK293T cells assessed as increase in glycine-induced channel current by two electrode voltage clamp method; assay type: cell-based
[22] = target: T1, Glutamate receptor ionotropic, NMDA 2D; experiment: Positive allosteric modulation of EGFP-fused human GluN2D receptor expressed in HEK293T cells assessed as increase in glycine-induced channel current by two electrode voltage clamp method; assay type: cell-based
[23] = target: T4, Glutamate receptor ionotropic, NMDA 2C; experiment: Positive allosteric modulation of EGFP-fused human GluN2C receptor expressed in HEK293T cells assessed as increase in glycine-induced channel current by two electrode voltage clamp method; assay type: cell-based
[24] = target: T3, Glutamate receptor ionotropic, NMDA 2A; experiment: Negative allosteric modulation of human GluN2A receptor expressed in xenopus laevis oocytes assessed as reduction in 3 uM glycine-induced channel current at -40 mV holding potential by two electrode voltage clamp method; assay type: cell-based
[25] = target: T3, Glutamate receptor ionotropic, NMDA 2A; experiment: Positive allosteric modulation of GluN2A receptor (unknown origin) expressed in HEK cell assessed as increase in glycine-induced calcium influx
[26] = target: Glutamate receptor ionotropic, NMDA 2B (Homo sapiens, UniProt Q13224); experiment: Positive allosteric modulation of GluN2B receptor (unknown origin) in hippocampal neurons assessed as increase in glycine-induced channel current by two electrode voltage clamp method
[27] = target: Glutamate receptor ionotropic, NMDA 2B (Rattus norvegicus, UniProt Q00960); experiment: Positive allosteric modulation of GluN2B receptor in rat spinal cord neurons assessed as increase in glycine-induced channel current by two electrode voltage clamp method

SMILES: CCN(CC)C(=S)Oc1ccc(C(=O)Nc2cccc3ccccc23)cc1
Ratio IC50 (Homo sapiens [8]): > 400
IC50 [9]: 1.4 µM
IC50 [10]: 2.6 µM
Ratio IC50 (Homo sapiens [11]): > 400
Ratio IC50 (Homo sapiens [12]): > 400
Ratio IC50 (Homo sapiens [13]): > 400

SMILES: CCCc1nc2[nH]c(C)c(NS(=O)(=O)c3ccc(C4CCCCC4)cc3)c(=O)n2n1
EC50 [1]: 6.7 µM
EC50 [2]: 15.7 µM
EC50 [3]: 3.2 µM
EC50 [4]: 6.6 µM

SMILES: O=C(O)c1ccc2cc(I)c3ccccc3c2c1
IC50 [9]: 50 µM
IC50 [10]: 50 µM
EC50 [3]: 100 µM

SMILES: CC(=O)[C@H]1CC[C@H]2[C@@H]3CC[C@@H]4C[C@H](OS(=O)(=O)O)CC[C@]4(C)[C@H]3CC[C@]12C
IC50 [15]: 62 µM
IC50 [9]: 14 µM
IC50 [10]: 12 µM
IC50 [14]: 38 µM

SMILES: C[C@@H](CN1CCC(Cc2ccccc2)CC1)[C@@H](O)c1ccc(O)cc1
IC50 [15]: 52 µM
IC50 [14]: 0.009 µM

SMILES: Cc1nccn1Cc1cc(-c2ccc(F)c(C(F)F)c2)cnn1 [EVT-101 FREE BASE]
IC50 [14]: 0.012 µM

SMILES: CC(=O)[C@H]1CC[C@H]2[C@@H]3CC=C4C[C@@H](OS(=O)(=O)O)CC[C@]4(C)[C@H]3CC[C@]12C
EC50 [20]: 63 µM
EC50 [21]: 34 µM
IC50 [9]: 118 µM
IC50 [10]: 112 µM
EC50 [2]: 33 µM
EC50 [22]: 78 µM
EC50 [3]: 21 µM
EC50 [23]: 83 µM

SMILES: CC(C(O)c1ccc(O)cc1)N1CCC(Cc2ccccc2)CC1 (stereo unspecified) [IFENPRODIL]
IC50 [5]: 75.9 µM
IC50 [7]: 29.1 µM
IC50 [24]: 39.5 µM

SMILES: COc1ccc(OCC2c3cc(OC)c(OC)cc3CCN2C(=O)c2cccc(Cl)c2)cc1 (stereo unspecified)
EC50 [1]: 2.8 µM
EC50 [2]: > 10 µM
EC50 [3]: > 10 µM
EC50 [4]: 2.7 µM

SMILES: NCCCNCCCCNCCCN [SPERMINE]
EC50 [26]: 125 µM
EC50 [27]: 81 µM
EC50 [2]: 127 µM

More lines, now with the values ahead:

EC50 [1]: 29 µM
EC50 [2]: 34 µM
EC50 [3]: 28 µM
EC50 [4]: 37 µM
SMILES: CC(C)CCCc1ccc2cc(C(=O)O)ccc2c1

IC50 [5]: > 10 µM
IC50 [6]: > 30 µM
IC50 [7]: > 10 µM
SMILES: O=C(NNC(=O)c1ccc(CNS(=O)(=O)c2ccc(F)c(Cl)c2)cc1)c1ccccc1

IC50 [10]: 7 µM
IC50 [14]: 113 µM
SMILES: Cc1ccc2[nH]c(=O)c(C3=NN(C(=O)CCC(=O)O)C(c4ccc(Br)cc4)C3)c(-c3ccccc3)c2c1 (stereo unspecified)

EC50 [3]: 8.5 µM
SMILES: Cc1sc2nc(COc3ccc(F)cc3)cc(=O)n2c1[C@@H]1C[C@@H]1CO

IC50 [15]: 1.8 µM
IC50 [9]: 2.4 µM
IC50 [10]: 2 µM
IC50 [14]: 2.4 µM
SMILES: O=C(O)c1cc2cc(-c3ccccc3)ccc2c(Br)c1O

EC50 [4]: 13 µM
SMILES: COC(=O)c1ccc(C2C(C(C)=O)=C(O)C(=O)N2CCc2c(C)[nH]c3ccccc23)cc1 (stereo unspecified)

IC50 [15]: 9.7 µM
EC50 [1]: 10 µM
IC50 [10]: 15 µM
IC50 [14]: 9.4 µM
SMILES: O=C(O)c1cc2cccc(O)c2cc1O

IC50 [16]: 68 µM
IC50 [17]: 19 µM
IC50 [15]: 18.6 µM
IC50 [18]: 426 µM
IC50 [19]: 90 µM
SMILES: O=C(O)c1cc2cc(Br)ccc2oc1=O

IC50 [15]: 182 µM
IC50 [9]: 3.9 µM
IC50 [10]: 7.1 µM
IC50 [14]: 193 µM
SMILES: COc1ccc2nc(/C=C/c3cccc([N+](=O)[O-])c3)n(-c3ccc(C(=O)O)cc3)c(=O)c2c1

IC50 [15]: 78 µM
IC50 [9]: 2.7 µM
IC50 [10]: 5.4 µM
IC50 [14]: 19 µM
SMILES: O=C(O)CCC(=O)N1N=C(c2c(-c3ccccc3)c3cc(Br)ccc3[nH]c2=O)CC1c1ccc(Br)cc1 (stereo unspecified)

EC50 [25]: 2430 nM
SMILES: CCN(Cc1cc(=O)n2c3c(sc2n1)CCC3)c1ccc(F)cc1
